# Experiments:
# K562 [1] = experiment: Cell cycle arrest in human K562 cells as assessed as accumulation at S phase at 1 uM after 24 hrs by propidium iodide staining-based flow cytometric analysis relative to control; assay type: functional
# K562 [2] = experiment: Cell cycle arrest in human K562 cells as assessed as accumulation at G2/M phase at 1 uM after 24 hrs by propidium iodide staining-based flow cytometric analysis relative to control; assay type: functional
# K562 [3] = experiment: Cell cycle arrest in human K562 cells as assessed as accumulation at sub-G1 phase at 0.1 uM after 48 hrs by propidium iodide staining-based flow cytometric analysis relative to control; assay type: functional
# K562 [4] = experiment: Cell cycle arrest in human K562 cells as assessed as accumulation at G1 phase at 0.1 uM after 48 hrs by propidium iodide staining-based flow cytometric analysis relative to control; assay type: functional
# K562 [5] = experiment: Cell cycle arrest in human K562 cells as assessed as accumulation at sub-G1 phase at 1 uM after 48 hrs by propidium iodide staining-based flow cytometric analysis relative to control; assay type: functional
# K562 [6] = experiment: Cell cycle arrest in human K562 cells as assessed as accumulation at sub-G1 phase at 0.5 uM after 24 hrs by propidium iodide staining-based flow cytometric analysis relative to control; assay type: functional
# K562 [7] = experiment: Cell cycle arrest in human K562 cells as assessed as accumulation at G1 phase at 0.5 uM after 24 hrs by propidium iodide staining-based flow cytometric analysis relative to control; assay type: functional
# K562 [8] = experiment: Cell cycle arrest in human K562 cells as assessed as accumulation at G2/M phase at 0.5 uM after 24 hrs by propidium iodide staining-based flow cytometric analysis relative to control; assay type: functional
# K562 [9] = experiment: Cell cycle arrest in human K562 cells as assessed as accumulation at G2/M phase at 0.5 uM after 48 hrs by propidium iodide staining-based flow cytometric analysis relative to control; assay type: functional
# MCF7 [10] = experiment: Antiproliferative activity against human MCF7 cells after 72 hrs by MTT assay; assay type: functional, cell-based
# SW-620 [11] = experiment: Antiproliferative activity against human SW620 cells after 72 hrs by MTT assay; assay type: functional, cell-based
# [12] = (§1) Antiproliferative activity against human MIAPaCa2 cells after 72 hrs by MTT assay; assay type: functional, cell-based; conditions: MIA PaCa-2, 72 h
# MIA PaCa-2 = experiment: as §1; assay type: functional, cell-based
# WI-38 [13] = experiment: Antiproliferative activity against human WI38 cells after 72 hrs by MTT assay; assay type: cell-based
# MCR = experiment: Antiproliferative activity against human MCR cells after 72 hrs by MTT assay; assay type: cell-based; conditions: human, mcr
# K562 [14] = experiment: Antiproliferative activity against apoptosis-resistant, Philadelphia chromosome-positive human K562 cells after 72 hrs by PrestoBlue colorimetric assay; assay type: functional, cell-based; conditions: K562, 72 h
# SW-620 [15] = experiment: Cell cycle arrest in human SW620 cells as assessed as accumulation at sub-G1 phase at 0.1 uM after 24 hrs by propidium iodide staining-based flow cytometric analysis relative to control; assay type: functional
# SW-620 [16] = experiment: Cell cycle arrest in human SW620 cells as assessed as accumulation at S phase at 0.1 uM after 24 hrs by propidium iodide staining-based flow cytometric analysis relative to control; assay type: functional
# SW-620 [17] = experiment: Cell cycle arrest in human SW620 cells as assessed as accumulation at sub-G1 phase at 1 uM after 24 hrs by propidium iodide staining-based flow cytometric analysis relative to control; assay type: functional
# SW-620 [18] = experiment: Cell cycle arrest in human SW620 cells as assessed as accumulation at G1 phase at 1 uM after 24 hrs by propidium iodide staining-based flow cytometric analysis relative to control; assay type: functional
# SW-620 [19] = experiment: Cell cycle arrest in human SW620 cells as assessed as accumulation at S phase at 1 uM after 24 hrs by propidium iodide staining-based flow cytometric analysis relative to control; assay type: functional
# SW-620 [20] = experiment: Cell cycle arrest in human SW620 cells as assessed as accumulation at G1 phase at 0.1 uM after 48 hrs by propidium iodide staining-based flow cytometric analysis relative to control; assay type: functional
# SW-620 [21] = experiment: Cell cycle arrest in human SW620 cells as assessed as accumulation at sub-G1 phase at 1 uM after 48 hrs by propidium iodide staining-based flow cytometric analysis relative to control; assay type: functional
# SW-620 [22] = experiment: Cell cycle arrest in human SW620 cells as assessed as accumulation at G1 phase at 1 uM after 48 hrs by propidium iodide staining-based flow cytometric analysis relative to control; assay type: functional
# WI-38 [23] = experiment: Cell cycle arrest in human WI38 cells as assessed as accumulation at sub-G1 phase at 0.1 uM after 24 hrs by propidium iodide staining-based flow cytometric analysis relative to control; conditions: wi-38, 24 h
# WI-38 [24] = experiment: Cell cycle arrest in human WI38 cells as assessed as accumulation at G1 phase at 0.1 uM after 24 hrs by propidium iodide staining-based flow cytometric analysis relative to control; conditions: wi-38, 24 h
# WI-38 [25] = experiment: Cell cycle arrest in human WI38 cells as assessed as accumulation at G1 phase at 0.1 uM after 48 hrs by propidium iodide staining-based flow cytometric analysis relative to control; conditions: wi-38, 48 h
# WI-38 [26] = experiment: Cell cycle arrest in human WI38 cells as assessed as accumulation at S phase at 0.1 uM after 48 hrs by propidium iodide staining-based flow cytometric analysis relative to control; conditions: wi-38, 48 h
# WI-38 [27] = experiment: Cell cycle arrest in human WI38 cells as assessed as accumulation at G2/M phase at 0.1 uM after 48 hrs by propidium iodide staining-based flow cytometric analysis relative to control; conditions: wi-38, 48 h
# MCF7 [28] = experiment: Cell cycle arrest in human MCF7 cells as assessed as accumulation at sub-G1 phase at 0.1 uM after 24 hrs by propidium iodide staining-based flow cytometric analysis relative to control; assay type: functional
# MCF7 [29] = experiment: Cell cycle arrest in human MCF7 cells as assessed as accumulation at S phase at 0.1 uM after 24 hrs by propidium iodide staining-based flow cytometric analysis relative to control; assay type: functional
# MCF7 [30] = experiment: Cell cycle arrest in human MCF7 cells as assessed as accumulation at sub-G1 phase at 1 uM after 24 hrs by propidium iodide staining-based flow cytometric analysis relative to control; assay type: functional
# MCF7 [31] = experiment: Cell cycle arrest in human MCF7 cells as assessed as accumulation at G2/M phase at 1 uM after 24 hrs by propidium iodide staining-based flow cytometric analysis relative to control; assay type: functional
# MCF7 [32] = experiment: Cell cycle arrest in human MCF7 cells as assessed as accumulation at sub-G1 phase at 0.1 uM after 48 hrs by propidium iodide staining-based flow cytometric analysis relative to control; assay type: functional
# MCF7 [33] = experiment: Cell cycle arrest in human MCF7 cells as assessed as accumulation at G1 phase at 1 uM after 48 hrs by propidium iodide staining-based flow cytometric analysis relative to control; assay type: functional
# K562 [34] = experiment: Cell cycle arrest in human K562 cells as assessed as accumulation at sub-G1 phase at 0.1 uM after 24 hrs by propidium iodide staining-based flow cytometric analysis relative to control; assay type: functional
# K562 [35] = experiment: Cell cycle arrest in human K562 cells as assessed as accumulation at G1 phase at 0.1 uM after 24 hrs by propidium iodide staining-based flow cytometric analysis relative to control; assay type: functional
# K562 [36] = experiment: Cell cycle arrest in human K562 cells as assessed as accumulation at G2/M phase at 0.1 uM after 24 hrs by propidium iodide staining-based flow cytometric analysis relative to control; assay type: functional
smiles,measurement,setting,value
COCn1c(CC(COCc2ccccc2)COCc2ccccc2)c(C)c(=O)n(COC)c1=O,Activity,K562 [1],26.6%
same,Activity,K562 [2],18.4%
same,Activity,K562 [3],3%
same,Activity,K562 [4],49.8%
same,Activity,K562 [5],4.2%
same,Activity,K562 [6],3.3%
same,Activity,K562 [7],85.8%
same,Activity,K562 [8],4.8%
same,Activity,K562 [9],3.9%
same,Activity,MCF7 [10],Dose-dependent effect
same,IC50,"MCF7 [10]; MCF7, 72 h",400 nM
same,Activity,SW-620 [11],Dose-dependent effect
same,IC50,"SW-620 [11]; SW-620, 72 h",500 nM
same,IC50,[12],500 nM
same,Activity,MIA PaCa-2,Dose-dependent effect
same,IC50,"WI-38 [13]; Homo sapiens, WI-38, 72 h",300 nM
same,Activity,"WI-38 [13]; human, wi-38, 72 h",Dose-dependent effect
same,Activity,MCR,Dose-dependent effect
same,IC50,K562 [14],600 nM
same,Activity,SW-620 [15],4.3%
same,Activity,SW-620 [16],19.6%
same,Activity,SW-620 [17],5.2%
same,Activity,SW-620 [18],55.9%
same,Activity,SW-620 [19],16.1%
same,Activity,SW-620 [20],49.7%
same,Activity,SW-620 [21],6.7%
same,Activity,SW-620 [22],53.1%
same,Activity,WI-38 [23],21.9%
same,Activity,WI-38 [24],61.7%
same,Activity,WI-38 [25],48.5%
same,Activity,WI-38 [26],6.8%
same,Activity,WI-38 [27],5.7%
same,Activity,MCF7 [28],55.5%
same,Activity,MCF7 [29],9.7%
same,Activity,MCF7 [30],67.1%
same,Activity,MCF7 [31],8.7%
same,Activity,MCF7 [32],50.5%
same,Activity,MCF7 [33],11.5%
same,Activity,K562 [34],2.2%
same,Activity,K562 [35],48.4%
same,Activity,K562 [36],22.2%

# — ChEMBL document CHEMBL3286303, “Synthesis and in vitro antiproliferative evaluation of novel N-alkylated 6-isobutyl- and propyl pyrimidine derivatives” (Bioorg Med Chem Lett, 2014)
